{"source": "patent US20250312333A1", "about": "“COMPOSITION CONTAINING ARIPIPRAZOLE AS ACTIVE INGREDIENT FOR ENHANCING ANTICANCER EFFECT OF KRAS G12C GENETIC MUTATION THERAPEUTIC AGENT” (KOREA INSTITUTE OF RADIOLOGICAL & MEDICAL SCIENCES, priority 2022, published 2025)", "format_in_all_cases": "cell-based", "key": {"[1]": {"test_system": "NOXA protein", "assay": "NOXA protein expression by Western blot in NCI-H1373 cells", "conditions": "aripiprazole treatment, eight hours, Western blot (FIG. 1)", "experimental": "(§1) To identify an effect of aripiprazole on the expression of a NOXA protein in cancer cells, MIA PaCa-2 cells and NCI-H1373 cells were treated with aripiprazole. Eight hours later, proteins were extracted from cells after washing with PBS, and a level of NOXA expression was checked via Western blot."}, "[2]": {"test_system": "NOXA protein", "assay": "NOXA protein expression by Western blot in MIA PaCa-2 cells", "conditions": "aripiprazole treatment, eight hours, Western blot (FIG. 1)", "experimental": "as §1"}, "[3]": {"test_system": "NCI-H1373 cells", "assay": "PARP cleavage (apoptosis) by Western blot in NCI-H1373 cells", "conditions": "co-treatment with the therapeutic agent for KRAS G12C genetic mutation vs either agent alone, twenty four hours (FIG. 4)", "experimental": "(§2) To identify the effect of aripiprazole on apoptosis induced by the therapeutic agent for KRAS G12C genetic mutation in cancer cells, NCI-H1373 cells were treated with aripiprazole alone or in combination with the therapeutic agent for KRAS G12C genetic mutation. Twenty four hours later, proteins were extracted from cells after washing with PBS, and the degree of PARP cleavage was checked via Western blot."}, "[4]": {"test_system": "MIA PaCa-2 cells", "assay": "PARP cleavage (apoptosis) by Western blot in MIA PaCa-2 cells", "conditions": "co-treatment with the therapeutic agent for KRAS G12C genetic mutation vs either agent alone, twenty four hours (FIG. 3)", "experimental": "as §2, with “MIA PaCa-2” for “NCI-H1373”"}}}
{"smiles": "O=C1CCc2ccc(OCCCCN3CCN(c4cccc(Cl)c4Cl)CC3)cc2N1", "note": "[aripiprazole]", "values": [{"measurement": "expression of NOXA protein", "setting": "[1]", "result": "increased"}, {"measurement": "expression of NOXA protein", "setting": "[2]", "result": "increased"}, {"measurement": "degree of PARP cleavage", "setting": "[3]", "result": "superior effect of inducing PARP cleavage"}, {"measurement": "degree of PARP cleavage", "setting": "[4]", "result": "superior effect of inducing PARP cleavage"}]}
